The record followed here is US7064120B2, “Tricyclic pyridyl carboxamides and derivatives thereof tocolytic oxytocin receptor antagonists” (Wyeth, priority 2001, dated 2006).

The target of this experiment is T1, human oxytocin receptor (Homo sapiens, UniProt P30559).
T1 construct: host or cells: CHO cells, stably transfected (pcDNA3.1 vector)
T1 sequence (P30559 1-389): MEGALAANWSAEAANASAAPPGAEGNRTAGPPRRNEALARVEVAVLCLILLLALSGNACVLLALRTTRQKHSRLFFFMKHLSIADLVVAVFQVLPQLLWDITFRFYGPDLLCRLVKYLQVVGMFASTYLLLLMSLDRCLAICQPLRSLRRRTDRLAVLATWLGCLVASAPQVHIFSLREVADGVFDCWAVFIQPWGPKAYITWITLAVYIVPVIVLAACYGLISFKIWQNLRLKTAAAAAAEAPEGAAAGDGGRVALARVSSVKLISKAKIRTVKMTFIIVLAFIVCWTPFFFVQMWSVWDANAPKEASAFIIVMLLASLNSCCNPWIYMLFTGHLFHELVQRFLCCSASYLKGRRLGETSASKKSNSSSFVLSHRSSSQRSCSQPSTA
Description: Oxytocin binding in CHO cell membranes expressing human oxytocin receptors ([3H]oxytocin radioligand binding). The following applies: 100 nM, read-out: OT % inhibition @ 100 nM. The procedure, abridged:
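Values are % inhibition at one concentration or nM IC50 from [3H]oxytocin displacement. Membranes from human oxytocin receptor CHO cells, 25–50 μg protein/well, 60 min at room temperature, pH 7.4 Tris buffer with protease inhibitors; bound label by filtration and scintillation counting.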
With `COc1ccccc1-c1ccc(C(=O)N2Cc3ccc(C(=O)N4CCN(c5ccccn5)CC4)n3Cc3ccccc32)cc1` [Example 78, {10-[(2′-Methoxy-[1,1′-biphenyl]-4-yl)carbonyl]-10,11-dihydro-5H-pyrrolo[2,1-c][1,4]benzodiazepin-3-yl}[4-(2-pyridinyl)-1-piperazinyl]methanone], the inhibition at 0.1 µM was found to be 59%.
For `Cc1ccccc1-c1ccc(C(=O)N2Cc3ccc(C(=O)N4CCN(c5ccccn5)CC4)n3Cc3ccccc32)cc1` [Example 79, {10-[(2′-Methyl-[1,1′-biphenyl]-4-yl)carbonyl]-10,11-dihydro-5H-pyrrolo[2,1-c][1,4]benzodiazepin-3-yl}[4-(2-pyridinyl)-1-piperazinyl]methanone], the inhibition at 0.1 µM was determined as 49%.
The figure for `COc1cc(C(=O)N2Cc3ccc(C(=O)N4CCN(c5ccccn5)CC4)n3Cc3ccccc32)ccc1-c1ccccc1C` [Example 80, {10-[(2-Methoxy-2′-methyl-[1,1′-biphenyl]-4-yl)carbonyl]-10,11-dihydro-5H-pyrrolo[2,1-c][1,4]benzodiazepin-3-yl}[4-(2-pyridinyl)-1-piperazinyl]methanone] is 50%; for `COc1cc(-c2ccccc2C)c(Cl)cc1C(=O)N1Cc2ccc(C(=O)N3CCN(c4ccccn4)CC3)n2Cc2ccccc21` [Example 81, {10-[(6-Chloro-3-methoxy-2′-methyl-[1,1′-biphenyl]-4-yl)carbonyl]-10,11-dihydro-5H-pyrrolo[2,1-c][1,4]benzodiazepin-3-yl}[4-(2-pyridinyl)-1-piperazinyl]methanone] it is 50%.
As for `COc1cccc(-c2cc(OC)c(C(=O)N3Cc4ccc(C(=O)N5CCN(c6ccccn6)CC5)n4Cc4ccccc43)cc2Cl)c1` [Example 82, {10-[(6-Chloro-3,3′-dimethoxy-[1,1′-biphenyl]-4-yl)carbonyl]-10,11-dihydro-5H-pyrrolo[2,1-c][1,4]benzodiazepin-3-yl}[4-(2-pyridinyl)-1-piperazinyl]methanone], the figure is 27%.
For the compound `COc1ccccc1-c1ccc(C(=O)N2Cc3ccc(C(=O)N4CCN(c5ccccn5)CC4)n3Cc3ccccc32)cc1OC` [Example 84, {10-[(2,2′-Dimethoxy-[1,1′-biphenyl]-4-yl)carbonyl]-10,11-dihydro-5H-pyrrolo[2,1-c][1,4]benzodiazepin-3-yl}[4-(2-pyridinyl)-1-piperazinyl]methanone], the inhibition at 0.1 µM amounted to 46%.
The figure for `COc1cccc(-c2ccc(C(=O)N3Cc4ccc(C(=O)N5CCN(c6ccccn6)CC5)n4Cc4ccccc43)cc2OC)c1` [Example 85, {10-[(2,3′-Dimethoxy-[1,1′-biphenyl]-4-yl)carbonyl]-10,11-dihydro-5H-pyrrolo[2,1-c][1,4]benzodiazepin-3-yl}[4-(2-pyridinyl)-1-piperazinyl]methanone] is 32%.
As for `O=C(c1ccc2n1Cc1ccccc1N(C(=O)c1ccc(-c3cccc4ccccc34)cc1Cl)C2)N1CCN(c2ccccn2)CC1` [Example 86, {10-[2-Chloro-4-(naphthalen-1-yl)benzoyl]-10,11-dihydro-5H-pyrrolo[2,1-c][1,4]benzodiazepin-3-yl}[4-(2-pyridinyl)-1-piperazinyl]methanone], the figure is 21%.
The figure for `Cc1cc(C(=O)N2Cc3ccc(C(=O)N4CCN(c5ccccn5)CC4)n3Cc3ccccc32)ccc1-c1ccccc1C(F)(F)F` [Example 87, (10-{[2-Methyl-2′-trifluoromethyl-[1,1′-biphenyl]-4-yl]carbonyl}-10,11-dihydro-5H-pyrrolo[2,1-c][1,4]benzodiazepin-3-yl)[4-(2-pyridinyl)-1-piperazinyl]methanone] is 52%; for `COc1ccccc1-c1ccc(C(=O)N2Cc3ccc(C(=O)NCc4ccncc4)n3Cc3ccccc32)cc1C` [Example 88, 10-[(2′-Methoxy-2-methyl-[1,1′-biphenyl]-4-yl)carbonyl]-N-(4-pyridinylmethyl)-10,11-dihydro-5H-pyrrolo[2,1-c][1,4]benzodiazepine-3-carboxamide] it is 44%.
